Measured values published in patent publication US20230027026A1, “FUSED PYRIMIDINE COMPOUNDS, COMPOSITIONS AND MEDICINAL APPLICATIONS THEREOF” (JUBILANT BIOSYS LIMITED, priority 2019, published 2023).
Structures can show the parent of a compound that is named as a salt.

How the values were obtained:
Assay type in all cases: cell-based
[1] = target: EGFR(D770_N771insSVD) expressing Ba/F3 stable cell line (Homo sapiens, UniProt P00533, DUP768-770, cells depend on it); assay: Cellular proliferation (Alamar Blue) assay, EGFR D770_N771insSVD Ba/F3; settings: EGFR D770_N771insSVD Ba/F3, 72 hr, read-out: D770 IC50
EGFR(D770_N771insSVD) expressing Ba/F3 stable cell line, sequence (P00533 with tags, fused parts or gaps DUP768-770): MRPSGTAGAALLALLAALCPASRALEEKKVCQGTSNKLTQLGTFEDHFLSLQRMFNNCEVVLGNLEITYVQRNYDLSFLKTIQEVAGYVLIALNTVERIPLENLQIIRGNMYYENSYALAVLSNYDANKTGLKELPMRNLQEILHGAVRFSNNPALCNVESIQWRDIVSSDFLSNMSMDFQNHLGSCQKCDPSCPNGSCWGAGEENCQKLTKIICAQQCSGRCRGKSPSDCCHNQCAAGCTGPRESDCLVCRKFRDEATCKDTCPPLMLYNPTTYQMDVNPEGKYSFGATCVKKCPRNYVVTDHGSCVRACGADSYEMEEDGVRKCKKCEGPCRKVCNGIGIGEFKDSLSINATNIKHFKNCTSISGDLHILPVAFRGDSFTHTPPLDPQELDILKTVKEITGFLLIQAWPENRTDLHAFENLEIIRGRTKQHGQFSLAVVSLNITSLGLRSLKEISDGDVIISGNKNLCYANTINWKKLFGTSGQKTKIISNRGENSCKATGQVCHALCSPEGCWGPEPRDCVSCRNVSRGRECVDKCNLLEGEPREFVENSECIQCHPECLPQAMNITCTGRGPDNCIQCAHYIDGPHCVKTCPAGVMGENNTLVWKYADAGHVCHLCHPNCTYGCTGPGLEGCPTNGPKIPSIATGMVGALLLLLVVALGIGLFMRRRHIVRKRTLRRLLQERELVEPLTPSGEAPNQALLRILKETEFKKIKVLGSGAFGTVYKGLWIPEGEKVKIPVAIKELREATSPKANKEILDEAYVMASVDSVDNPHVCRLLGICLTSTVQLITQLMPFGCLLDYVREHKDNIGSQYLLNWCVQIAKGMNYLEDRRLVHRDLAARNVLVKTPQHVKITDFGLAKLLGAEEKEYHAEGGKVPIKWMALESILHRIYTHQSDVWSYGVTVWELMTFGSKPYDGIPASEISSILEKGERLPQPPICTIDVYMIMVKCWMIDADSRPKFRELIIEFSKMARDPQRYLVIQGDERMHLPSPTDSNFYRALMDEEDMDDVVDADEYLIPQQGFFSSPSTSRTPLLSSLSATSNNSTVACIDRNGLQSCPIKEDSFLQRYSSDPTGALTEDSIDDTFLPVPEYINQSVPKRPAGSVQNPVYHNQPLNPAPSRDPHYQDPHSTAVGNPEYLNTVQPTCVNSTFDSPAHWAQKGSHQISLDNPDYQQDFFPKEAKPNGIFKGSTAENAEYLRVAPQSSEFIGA
Method in brief: (§1)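 Plate cells (Ba/F3: 15,000/well, RPMI/10% FBS), 16–18 h, 37 °C. Add cpd, 3-fold dilutions, 10–0.0005 μM final, DMSO ctrl; 72 h. Alamar Blue 3 h; read Ex540/Em590.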

[2] = tested on: A431 cells; assay: Cellular proliferation (Alamar Blue) assay, A431; settings: Homo sapiens, A-431; A431 cells, 72 hr, Alamar Blue; read-out: A431 IC50
Method in brief: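 Following a 16–18 h pre-incubation, cells received compound or DMSO for 72 h at 37 °C across a 10–0.0005 μM final range. Proliferation was then scored by Alamar Blue fluorescence (540 nm excitation, 590 nm emission) after 3 h.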

[3] = target: HER2 (A775_G776insYVMA) expressing Ba/F3 stable cell line (Homo sapiens, UniProt P04626, DUP772-775, cells depend on it); assay: Cellular proliferation (Alamar Blue) assay, HER2 YVMA Ba/F3; settings: HER2 A775_G776insYVMA Ba/F3, 72 hr, read-out: YVMA IC50
HER2 (A775_G776insYVMA) expressing Ba/F3 stable cell line, sequence (P04626 with tags, fused parts or gaps DUP772-775): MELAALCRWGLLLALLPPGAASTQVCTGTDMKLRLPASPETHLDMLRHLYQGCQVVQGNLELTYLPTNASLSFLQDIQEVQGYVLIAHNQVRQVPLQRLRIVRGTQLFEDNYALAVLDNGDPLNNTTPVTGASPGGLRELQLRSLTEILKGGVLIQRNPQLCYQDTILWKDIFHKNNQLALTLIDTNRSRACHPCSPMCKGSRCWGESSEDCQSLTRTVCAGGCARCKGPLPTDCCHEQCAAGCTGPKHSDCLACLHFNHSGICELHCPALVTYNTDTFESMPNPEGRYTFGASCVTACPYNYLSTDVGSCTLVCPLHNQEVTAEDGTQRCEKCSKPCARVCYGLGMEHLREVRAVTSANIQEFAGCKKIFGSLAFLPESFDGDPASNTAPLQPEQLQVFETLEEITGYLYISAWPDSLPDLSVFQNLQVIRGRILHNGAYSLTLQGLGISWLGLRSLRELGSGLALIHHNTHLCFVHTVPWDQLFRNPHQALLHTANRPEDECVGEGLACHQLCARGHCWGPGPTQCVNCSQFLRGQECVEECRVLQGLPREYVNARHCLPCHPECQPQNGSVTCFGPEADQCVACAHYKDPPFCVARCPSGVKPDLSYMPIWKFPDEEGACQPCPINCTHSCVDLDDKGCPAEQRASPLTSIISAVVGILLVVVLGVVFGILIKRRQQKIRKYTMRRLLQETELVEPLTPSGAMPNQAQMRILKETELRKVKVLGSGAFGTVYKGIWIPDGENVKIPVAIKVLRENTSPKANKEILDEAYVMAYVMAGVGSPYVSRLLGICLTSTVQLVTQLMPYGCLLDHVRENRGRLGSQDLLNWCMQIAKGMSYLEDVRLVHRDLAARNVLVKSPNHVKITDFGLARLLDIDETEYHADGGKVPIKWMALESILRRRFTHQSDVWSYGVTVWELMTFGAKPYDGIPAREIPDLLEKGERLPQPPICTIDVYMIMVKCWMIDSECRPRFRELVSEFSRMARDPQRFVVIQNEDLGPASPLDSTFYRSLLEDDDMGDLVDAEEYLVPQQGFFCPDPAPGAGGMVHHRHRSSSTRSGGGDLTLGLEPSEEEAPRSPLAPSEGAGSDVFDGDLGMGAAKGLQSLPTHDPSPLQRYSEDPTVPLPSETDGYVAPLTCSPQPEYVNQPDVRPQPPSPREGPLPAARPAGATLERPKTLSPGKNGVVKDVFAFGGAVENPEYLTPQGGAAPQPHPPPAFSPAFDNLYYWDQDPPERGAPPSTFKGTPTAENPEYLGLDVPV
Description: Example 3: Cellular Proliferation (Alamar Blue) Assays
• 1. EGFR(D770_N771insSVD) expressing Ba/F3 stable cell line • 2. EGFR (A767_dupASV) expressing Ba/F3 stable cell line • 3. A431 cells • 4. BTER2 (A775_G776insYVMA) expressing Ba/F3 stable cell line • 5. BTER2 (WT) expressing Ba/F3 stable cell line • 6. BT-474 cells
• 1. Seed cells at 5000 for A431 and 15,000 cells for Ba/F3 in 100 μL/well in complete media (for A431: DMEM with 10% FBS and for Ba/F3 cells: RPMI with 10% FBS) in 96-well tissue culture plate. Leave outer wells without cells for background measurements. Incubate at 37 degree Celsius in 5% CO2 humidified incubator for 16-18 hours. • 2. Add 0.025 ml of 5× concentration compound dilution or DMSO control. Final compound concentration range is 10-0.0005 μM prepared in 3-fold serial dilutions. Incubate for 72 hr at 37 degree Celsius in […] humidified incubator. • 3. Add 0.0125 mL Alamar Blue™ reagent to each well with multi-channel pipette and tap gently on each side of the plate to mix. Incubate for 3 hours at 37 degree Celsius in […] humidified incubator. • 4. Read plates on fluorescence reader (Tecan Spark Control, Device: Spark, Serial #: 1801006040) at 540 nm excitation, 590 nm emission wavelength. • 5. Data analysis was performed using XLfit 5.5.0.5.

[4] = target: EGFR (A767_dupASV) expressing Ba/F3 stable cell line (Homo sapiens, UniProt P00533, DUP767-769, cells depend on it); assay: Cellular proliferation (Alamar Blue) assay, EGFR A767_dupASV Ba/F3; settings: EGFR A767_dupASV Ba/F3, 72 hr, read-out: A767 IC50
EGFR (A767_dupASV) expressing Ba/F3 stable cell line, sequence (P00533 with tags, fused parts or gaps DUP767-769): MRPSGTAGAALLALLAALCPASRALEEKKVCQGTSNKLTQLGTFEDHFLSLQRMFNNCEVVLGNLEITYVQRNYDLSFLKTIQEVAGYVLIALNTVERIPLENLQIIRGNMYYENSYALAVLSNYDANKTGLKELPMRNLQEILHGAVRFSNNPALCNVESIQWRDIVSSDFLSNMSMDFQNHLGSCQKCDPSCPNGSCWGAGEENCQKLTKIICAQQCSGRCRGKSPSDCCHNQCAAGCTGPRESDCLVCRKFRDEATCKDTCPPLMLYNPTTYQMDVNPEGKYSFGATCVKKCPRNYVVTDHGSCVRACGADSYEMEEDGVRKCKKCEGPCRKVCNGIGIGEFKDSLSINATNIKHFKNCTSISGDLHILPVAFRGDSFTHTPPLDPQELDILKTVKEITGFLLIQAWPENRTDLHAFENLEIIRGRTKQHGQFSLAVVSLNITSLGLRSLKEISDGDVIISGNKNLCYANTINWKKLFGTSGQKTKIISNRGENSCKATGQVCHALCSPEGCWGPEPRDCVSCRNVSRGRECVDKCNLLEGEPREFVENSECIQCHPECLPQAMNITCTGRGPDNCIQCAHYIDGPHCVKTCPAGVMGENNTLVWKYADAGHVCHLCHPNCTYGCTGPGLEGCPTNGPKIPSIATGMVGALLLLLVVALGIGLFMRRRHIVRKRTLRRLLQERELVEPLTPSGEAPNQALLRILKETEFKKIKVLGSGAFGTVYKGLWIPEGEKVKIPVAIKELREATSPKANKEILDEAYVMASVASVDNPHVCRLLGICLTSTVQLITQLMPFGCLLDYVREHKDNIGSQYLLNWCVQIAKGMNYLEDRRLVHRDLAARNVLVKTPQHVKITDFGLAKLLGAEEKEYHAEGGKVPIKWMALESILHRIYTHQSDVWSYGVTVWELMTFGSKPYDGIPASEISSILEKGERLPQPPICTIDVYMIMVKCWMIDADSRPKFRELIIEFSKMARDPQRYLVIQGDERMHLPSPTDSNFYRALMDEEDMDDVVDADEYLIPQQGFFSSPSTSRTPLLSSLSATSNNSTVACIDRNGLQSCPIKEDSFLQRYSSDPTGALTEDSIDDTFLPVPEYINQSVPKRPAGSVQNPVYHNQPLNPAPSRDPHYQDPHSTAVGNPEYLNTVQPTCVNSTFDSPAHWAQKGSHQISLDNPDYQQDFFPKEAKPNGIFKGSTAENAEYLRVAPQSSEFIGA
Method in brief: as §1

SMILES | GI50 [1] | IC50 [2] | GI50 [3] | GI50 [4]
Cn1cc(Nc2ncc3c(n2)N(c2cccc(NC(=O)/C=C/CN4CCCCC4)c2)C(=O)N(Cc2ccccc2)C3)c(F)n1 [Compound 82, (E)-N-(3-(3-benzyl-7-((3-fluoro-1-methyl-1H-pyrazol-4-yl)amino)-2-oxo-3,4-dihydropyrimido[4,5-d]pyrimidin-1(2H)-yl)phenyl)-4-(piperidin-1-yl)but-2-enamide] | 280 nM | ≥ 10000 nM | 40 nM | 123 nM
C=CC(=O)Nc1cccc(N2C(=O)N(Cc3ccccc3)Cc3cnc(Nc4ccc(N5CCC(N(C)C)CC5)nc4)nc32)c1 [Compound 72, N-(3-(3-benzyl-7-((6-(4-(dimethylamino)piperidin-1-yl)pyridin-3-yl)amino)-2-oxo-3,4-dihydropyrimido[4,5-d]pyrimidin-1(2H)-yl)phenyl)acrylamide] | 296 nM | ≥ 10000 nM | 575 nM | 100 nM
CN(C)C/C=C/C(=O)Nc1cccc(N2C(=O)N(Cc3ccccc3)Cc3cnc(Nc4cn(C5CCN(C)CC5)nc4Cl)nc32)c1 [Compound 65, (E)-N-(3-(3-benzyl-7-((3-chloro-1-(1-methylpiperidin-4-yl)-1H-pyrazol-4-yl)amino)-2-oxo-3,4-dihydropyrimido[4,5-d]pyrimidin-1(2H)-yl)phenyl)-4-(dimethylamino)but-2-enamide trifluoroacetate salt] | 1090 nM | ≥ 10000 nM | 732 nM | 964 nM
C/C=C/C(=O)Nc1cccc(N2C(=O)N(c3ccccc3)Cc3cnc(Nc4cn(C)nc4Cl)nc32)c1 [Compound 120, (E)-N-(3-(7-((3-chloro-1-methyl-1H-pyrazol-4-yl)amino)-2-oxo-3-phenyl-3,4-dihydropyrimido[4,5-d]pyrimidin-1(2H)-yl)phenyl)but-2-enamide] | 183 nM | ≥ 10000 nM | 158 nM | 107 nM
C=CC(=O)Nc1cccc(N2C(=O)N(Cc3ccc(C)cc3C)Cc3cnc(Nc4cn(C)nc4Cl)nc32)c1 [Compound 69, N-(3-(7-((3-chloro-1-methyl-1H-pyrazol-4-yl)amino)-3-(2,4-dimethylbenzyl)-2-oxo-3,4-dihydropyrimido[4,5-d]pyrimidin-1(2H)-yl)phenyl)acrylamide] | 349 nM | ≥ 10000 nM | 682 nM | 333 nM
C=CC(=O)Nc1cccc(N2C(=O)N(c3ccccc3)Cc3cnc(Nc4ccc(N5CCN(C)CC5)nc4)nc32)c1 [Compound 110, N-(3-(7-((6-(4-methylpiperazin-1-yl)pyridin-3-yl)amino)-2-oxo-3-phenyl-3,4-dihydropyrimido[4,5-d]pyrimidin-1(2H)-yl)phenyl)acrylamide] | 102 nM | 3640 nM | 103 nM | 43 nM
C=CC(=O)Nc1cccc(N2C(=O)N(c3ccccc3)Cc3cnc(Nc4ccc(N5CCC(N(C)C)CC5)nc4)nc32)c1 [Compound 112, N-(3-(7-((6-(4-(dimethylamino)piperidin-1-yl)pyridin-3-yl)amino)-2-oxo-3-phenyl-3,4-dihydropyrimido[4,5-d]pyrimidin-1(2H)-yl)phenyl)acrylamide] | 295 nM | ≥ 10000 nM | 354 nM | 229 nM
CC#CC(=O)Nc1cccc(N2C(=O)N(c3ccccc3)Cc3cnc(Nc4cn(C)nc4Cl)nc32)c1 [Compound 125, N-(3-(7-((3-chloro-1-methyl-1H-pyrazol-4-yl)amino)-2-oxo-3-phenyl-3,4-dihydropyrimido[4,5-d]pyrimidin-1(2H)-yl)phenyl)but-2-ynamide] | 338 nM | ≥ 10000 nM | 445 nM | 269 nM
C=CC(=O)Nc1cccc(N2C(=O)N(c3ccccc3)Cc3cnc(Nc4cccnc4F)nc32)c1 [Compound 115, N-(3-(7-((2-fluoropyridin-3-yl)amino)-2-oxo-3-phenyl-3,4-dihydropyrimido[4,5-d]pyrimidin-1(2H)-yl)phenyl)acrylamide] | 28 nM | ≥ 10000 nM | 188 nM | 8 nM
Cn1cc(Nc2ncc3c(n2)N(c2cccc(NC(=O)/C=C/CN4CCOCC4)c2)C(=O)N(c2ccccc2)C3)c(Cl)n1 [Compound 122, (E)-N-(3-(7-((3-chloro-1-methyl-1H-pyrazol-4-yl)amino)-2-oxo-3-phenyl-3,4-dihydropyrimido[4,5-d]pyrimidin-1(2H)-yl)phenyl)-4-morpholinobut-2-enamide] | 284 nM | ≥ 10000 nM | 132 nM | 101 nM
C=CC(=O)Nc1cccc(N2C(=O)N(c3ccccc3)Cc3cnc(Nc4cn(C5COC5)nc4Cl)nc32)c1 [Compound 136, N-(3-(7-((3-chloro-1-(oxetan-3-yl)-1H-pyrazol-4-yl)amino)-2-oxo-3-phenyl-3,4-dihydropyrimido[4,5-d]pyrimidin-1(2H)-yl)phenyl)acrylamide] | 29 nM | > 10000 nM | 63 nM | 15 nM
C=CC(=O)Nc1cccc(N2C(=O)N(c3ccccc3)Cc3cnc(Nc4cn(C)nc4F)nc32)c1 [Compound 113, N-(3-(7-((3-fluoro-1-methyl-1H-pyrazol-4-yl)amino)-2-oxo-3-phenyl-3,4-dihydropyrimido[4,5-d]pyrimidin-1(2H)-yl)phenyl)acrylamide] | 17 nM | ≥ 10000 nM | 68 nM | 4 nM
Cc1ccc(CN2Cc3cnc(Nc4cn(C)nc4Cl)nc3N(c3cccc(NC(=O)/C=C/CN(C)C)c3)C2=O)c(C)c1 [Compound 68, (E)-N-(3-(7-((3-chloro-1-methyl-1H-pyrazol-4-yl)amino)-3-(2,4-dimethylbenzyl)-2-oxo-3,4-dihydropyrimido[4,5-d]pyrimidin-1(2H)-yl)phenyl)-4-(dimethylamino)but-2-enamide] | 798 nM | 6020 nM | 632 nM | 356 nM
C=C(C)C(=O)Nc1cccc(N2C(=O)N(c3ccccc3)Cc3cnc(Nc4cn(C)nc4Cl)nc32)c1 [Compound 121, N-(3-(7-((3-chloro-1-methyl-1H-pyrazol-4-yl)amino)-2-oxo-3-phenyl-3,4-dihydropyrimido[4,5-d]pyrimidin-1(2H)-yl)phenyl)methacrylamide] | ≥ 10000 nM | ≥ 10000 nM | 883 nM | 8600 nM
C=CC(=O)Nc1cccc(N2C(=O)N(Cc3ccccc3)Cc3cnc(Nc4ccc(N5CCN(C)CC5)nc4)nc32)c1 [Compound 67, N-(3-(3-benzyl-7-((6-(4-methylpiperazin-1-yl)pyridin-3-yl)amino)-2-oxo-3,4-dihydropyrimido[4,5-d]pyrimidin-1(2H)-yl)phenyl)acrylamide] | 84 nM | ≥ 10000 nM | 90 nM | 41 nM
CN(C)C/C=C/C(=O)Nc1cccc(N2C(=O)N(c3ccccc3)Cc3cnc(Nc4cccnc4F)nc32)c1 [Compound 114, (E)-4-(dimethylamino)-N-(3-(7-((2-fluoropyridin-3-yl)amino)-2-oxo-3-phenyl-3,4-dihydropyrimido[4,5-d]pyrimidin-1(2H)-yl)phenyl)but-2-enamide] | 1090 nM | ≥ 10000 nM | 1150 nM | 164 nM
